pIC50: −log10 of the molar value.

Data set [1] concerns the target T1, cloned human 5-HT1A receptors (Homo sapiens, UniProt P08908).
T1 construct: expressed in transfected cells; host or cells: HeLa cells (HA7), stably transfected; cell homogenate
T1 sequence (P08908 1-422): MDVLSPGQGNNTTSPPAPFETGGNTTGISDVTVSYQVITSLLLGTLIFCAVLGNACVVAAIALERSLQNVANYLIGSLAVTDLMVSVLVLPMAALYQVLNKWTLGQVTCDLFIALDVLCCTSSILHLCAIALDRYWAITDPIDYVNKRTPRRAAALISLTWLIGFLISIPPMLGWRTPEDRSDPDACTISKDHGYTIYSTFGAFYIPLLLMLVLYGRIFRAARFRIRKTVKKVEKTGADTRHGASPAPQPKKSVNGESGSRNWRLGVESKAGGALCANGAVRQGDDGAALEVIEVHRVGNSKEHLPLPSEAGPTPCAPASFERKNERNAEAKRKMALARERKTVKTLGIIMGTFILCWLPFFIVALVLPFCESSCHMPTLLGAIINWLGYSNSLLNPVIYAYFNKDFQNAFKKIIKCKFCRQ
As to the kind of experiment: Inhibition of 3H-5-CT binding to human 5-HT1A receptors. Particulars: cloned human 5-HT1A receptors expressed in HeLa cells (HA7). Here is the method: Inhibition of ^3H-5CT Binding to Human 5-HT1A Receptors
Human 5-HT1A receptors (40 μg of cell homogenate) were incubated for 15 minutes at 37° C. in 50 mM Tris buffer at pH 7.7 in the presence of ^3H-5-CT. Non-specific binding was determined by including 10 μM of metergoline. The reaction was terminated by rapid filtration through Unifilter GF/B filters on a Tomtec Cell Harvester. Filters were counted in a Packard Top Counter.

Data set [2] has as its system serotonin reuptake (3H-5-HT uptake into whole rat brain synaptosomes). As to the kind of experiment: Inhibition of 3H-5-HT uptake into rat brain synaptosomes. It is filed as biochemical. As for the experimental part: Inhibition of ^3H-5HT Uptake Into Rat Brain Synaptosomes
Using this method, the ability of drugs to inhibit the accumulation of ^3H-5-HT into whole rat brain synaptosomes is determined in vitro.

As usually defined, the melting point is the temperature, or range, at which the solid turns liquid. Consider `CN(CCCC1(c2ccc(F)cc2)OCc2cc(C#N)ccc21)Cc1cccc2c1OCCO2.O=C(O)C(=O)O` (stereo not shown), for which the melting point was 160 to 162 °C.
Same read-out and setting: the same measure for `CN(CCCc1cccc2c1OCCO2)CCCC1(c2ccc(F)cc2)OCc2cc(F)ccc21.O=C(O)C(=O)O` (stereo not shown): 131 to 133 °C.
A word on the pIC50: it is the IC50 on a negative log10 scale, so that one unit is a factor of ten. A low value points to a high IC50. In the case of `CN(CCCc1cccc2c1OCCO2)CCCC1(c2ccc(F)cc2)OCc2cc(C#N)ccc21.O=C(O)C(=O)O` (single isomer, unassigned; (+)) [Compound 1b, (+)-1-[3-[[3-(1,4-Benzodioxan-5-yl)propyl]methylamino]propyl]-1-(4-fluorophenyl)-1,3-dihydroisobenzofuran-5-carbonitrile oxalate], the melting point fell in the range of 114 to 116 °C. Besides, the negative-log IC50 (pIC50) in data set [1] was 7.92.
For `CN(CCCC1(c2ccc(F)cc2)OCc2cc(C#N)ccc21)CCc1cccc2c1OCCO2.O=C(O)C(=O)O` (stereo not shown) [Compound 1c, 1-[3-[[2-(1,4-Benzodioxan-5-yl)ethyl]methylamino]propyl]-1-(4-fluorophenyl)-1,3-dihydroisobenzofuran-5carbonitrile oxalate], the melting point was 118 to 120 °C. Further, the pIC50 in data set [1] is 7.28.
`CCN(CCCc1c[nH]c2c(F)cccc12)CCCC1(c2ccc(F)cc2)OCc2cc(C#N)ccc21` (stereo not shown) [Compound 12p, 1-[3-[Ethyl[3-(7-fluoro-1H-indol-3-yl)propyl]amino]propyl]-1-(4-fluorophenyl)-1,3-dihydroisobenzofuran-5carbonitrile]: the values for the pIC50 in data set [1] and in data set [2] were 7.72 and 7.96, respectively.
Taken in the same sequence, the figures for `CCN(CCCc1c[nH]c2ccc(F)cc12)CCCC1(c2ccc(F)cc2)OCc2cc(C#N)ccc21` (stereo not shown) [Compound 12q, 1-[3-[Ethyl[3-(5-fluoro-1H-indol-3-yl)propyl]amino]propyl]-1-(4-fluorophenyl)-1,3-dihydroisobenzofuran-5carbonitrile] were 7.92 and 8.20.
Molecule `CN(CCCc1c[nH]c2ccc(Cl)cc12)CCCC1(c2ccc(F)cc2)OCc2cc(C#N)ccc21` (stereo not shown) [Compound 12r, 1-[3-[[3-(5-Chloro-1H-indol-3-yl)propyl]methylamino]propyl]-1-(4-fluorophenyl)-1,3-dihydroisobenzofuran-5-carbonitrile] had a pIC50 in data set [1] of 7.80. For the same molecule, the “Inhibition of serotonin reuptake % inhibition at 100 nM” value in data set [2] was 47% inh. at 100 nM.
As for `CCN(CCCC1(c2ccc(F)cc2)OCc2cc(C#N)ccc21)CCc1c[nH]c2c(Cl)cccc12` (stereo not shown) [Compound 12s, 1-[3-[[2-(7-Chloro-1H-indol-3-yl)ethyl]ethylamino]propyl]-1-(4-fluorophenyl)-1,3-dihydroisobenzofuran-5-carbonitrile], the pIC50 in data set [1] was 8.11; in data set [2], 7.74.
Regarding `CCN(CCCC1(c2ccc(F)cc2)OCc2cc(C#N)ccc21)CCc1c[nH]c2c(F)cc(F)cc12` (stereo not shown) [Compound 12u, 1-[3-[[2-(5,7-Difluoro-1H-indol-3-yl)ethyl]ethylamino]propyl]-1-(4-fluorophenyl)-1,3-dihydroisobenzofuran-5-carbonitrile], the pIC50 in data set [1] was 8.05; in data set [2] it was 7.66.
The matching figures for `CCN(CCCCc1c[nH]c2ccc(F)cc12)CCCC1(c2ccc(F)cc2)OCc2cc(C#N)ccc21` (stereo not shown) [Compound 12v, 1-[3-[[4-(5-Fluoro-1H-indol-3-yl)butyl]ethylamino]propyl]-1-(4-fluorophenyl)-1,3-dihydroisobenzofuran-5-carbonitrile]: 7.41 and 7.92.
Molecule `CCN(CCCc1c[nH]c2ccc(Cl)cc12)CCCC1(c2ccc(F)cc2)OCc2cc(C#N)ccc21` (stereo not shown) [Compound 12x, 1-[3-[[3-(5-Chloro-1H-indol-3-yl)propyl]ethylamino]propyl]-1-(4-fluorophenyl)-1,3-dihydroisobenzofuran-5-carbonitrile] gave a pIC50 in data set [1] of 7.85. Moreover, the “Inhibition of serotonin reuptake % inhibition at 100 nM” value in data set [2] was 50% inh. at 100 nM.
For `C=CCN(CCCC1(c2ccc(F)cc2)OCc2cc(C#N)ccc21)CCc1c[nH]c2ccc(F)cc12` (stereo not shown) [Compound 13b, 1-[3-[[2-(5-Fluoro-1H-indol-3-yl)ethyl](prop-2-en-1-yl)amino]propyl]-1-(4-fluorophenyl)-1,3-dihydroisobenzofuran-5-carbonitrile], the pIC50 is 8.13 in data set [1] and 7.36 in data set [2].
Taken in the same sequence, the figures for `C=CCN(CCCC1(c2ccc(F)cc2)OCc2cc(C#N)ccc21)CCc1c[nH]c2c(F)cccc12` (stereo not shown) [Compound 13c, 1-[3-[[2-(7-Fluoro-1H-indol-3-yl)ethyl](prop-2-en-1-yl)amino]propyl]-1-(4-fluorophenyl)-1,3-dihydroisobenzofuran-5-carbonitrile] were 8.02 and 7.92.
The matching figures for `C=CCN(CCCc1c[nH]c2ccc(F)cc12)CCCC1(c2ccc(F)cc2)OCc2cc(C#N)ccc21` (stereo not shown) [Compound 13d, 1-[3-[[3-(5-Fluoro-1H-indol-3-yl)propyl](prop-2-en-1-yl)amino]propyl]-1-(4-fluorophenyl)-1,3-dihydroisobenzofuran-5-carbonitrile]: 7.82 and 7.68.
Taken in the same sequence, the figures for `C=CCN(CCCc1c[nH]c2c(F)cccc12)CCCC1(c2ccc(F)cc2)OCc2cc(C#N)ccc21` (stereo not shown) [Compound 13e, 1-[3-[[3-(7-Fluoro-1H-indol-3-yl)propyl](prop-2-en-1-yl)amino]propyl]-1-(4-fluorophenyl)-1,3-dihydroisobenzofuran-5-carbonitrile] were 7.66 and 7.57.
As to `C=CCN(CCCC1(c2ccc(F)cc2)OCc2cc(C#N)ccc21)CCc1c[nH]c2ccc(Cl)cc12` (stereo not shown) [Compound 13f], the pIC50 in data set [1] is 7.51. For the same molecule, the “Inhibition of serotonin reuptake % inhibition at 100 nM” value in data set [2] is 16% inh. at 100 nM.
The matching figures for `CCCN(CCCC1(c2ccc(F)cc2)OCc2cc(C#N)ccc21)CCc1c[nH]c2c(F)cc(F)cc12` (stereo not shown) [Compound 13g, 1-[3-[[2-(5,7-Difluoro-1H-indol-3-yl)ethyl]propylamino]propyl]-1-(4-fluorophenyl)-1,3-dihydroisobenzofuran-5-carbonitrile]: 7.74 and 49% inh. at 100 nM.
`C=CCN(CCCC1(c2ccc(F)cc2)OCc2cc(C#N)ccc21)CCc1c[nH]c2c(C)ccc(Cl)c12` (stereo not shown) [Compound 13j, 1-[3-[[2-(4-Chloro-7-methyl-1H-indol-3-yl)ethyl](prop-2-en-1-yl)amino]propyl]-1-(4-fluorophenyl)-1,3-dihydroisobenzofuran-5-carbonitrile] showed a pIC50 in data set [1] of 7.80. For the same molecule, the “Inhibition of serotonin reuptake % inhibition at 100 nM” value in data set [2] turned out to be 61% inh. at 100 nM.

(Values after patent US6492374B2, “Benzofuran derivatives, their preparation and use” (H. Lundbeck A/S, priority 1998, dated 2002).)
